Reference: US20050101623A1 (Pharmacia Corporation, priority 2003, published 2005)
Where “and” joins values, the source holds several entries; their conditions need not be identical. Equal values may be shown once. Where a name gives a salt, the structure may show the parent alone. Read-outs that look alike come from different tables or passages of the source.

What was measured:
[1] = biological target: Recombinant MAPKAPK2 (MK-2) (Homo sapiens, UniProt P49137); assay: Determination of MK-2 IC50 (phosphorylation of HSP-peptide, anion exchange resin capture assay); format: biochemical
TNFα release, U937 cells = assay: U937 Cell TNFα Release Assay (LPS, ELISA); format: cell-based, human; details: additional values are replicate IC50 experiments
Protocol: U937 Cell TNFα Release Assay
Differentiation of U937 to monocytic/macrophage-like cells is induced by the addition of phorbol12-myristate 13-acetate (Sigma) at final concentration of 20 ng/ml to a culture of U937 cells at ˜0.5 million cells/ml and incubated for 24 hrs. The cells are centrifuged, washed with PBS and resuspended in fresh media without PMA and incubated for 24 hrs. Cells adherent to the culture flask are harvested by scraping, centrifugation, and resuspended in fresh media to 2 million cells/ml, and 0.2 ml is aliquoted to each of 96 wells in flat-bottom plate. Cells are then incubated for an additional 24 hrs to allow for recovery. The media is removed from the cells, and 0.1 ml of fresh media is added per well. 0.05 ml of serially diluted compound or control vehicle (Media with DMSO) is added to the cells. […] Cells are incubated at 37° C. for 4 hrs. After 4 hrs incubation, supernatants are harvest and assayed by ELISA for the presence of TNFα.
Coating solution was aspirated the following day and wells were blocked with 1 mg/ml gelatin in PBS (plus 1× thimerasol) for 2 days at 4° C. Prior to using, wells were washed 3× with wash buffer (PBS with 0.05% Tween). Cultured media samples were diluted in EIA buffer (5 mg/ml bovine γ-globulin, 1 mg/ml gelatin, 1 ml/l Tween-20, 1 mg/ml thimerasol in PBS), added to wells (0.1 ml/well) in triplicate and allowed to incubate for 1.5 hr at 37° C. in a humidified chamber. […] TNF levels were quantitated from a recombinant human TNFα (R&D Systems #210-TA-010) standard curve using a quadratic parameter fit generated by SoftMaxPRO software. ELISA sensitivity was approximately 30 pg TNF/ml. IC50 values for compounds were generated using BioAssay Solver.

endotoxin-induced shock = details: murine model of endotoxin-induced shock; cited from earlier work
[2] = test system: collagen-induced arthritis; details: mouse; cited from earlier work
adjuvant arthritis = details: rat; cited from earlier work
MK-2 = details: cited from earlier work
[3] = MK-2 Avg. IC50, additional values are replicate IC50 experiments
[4] = Homo sapiens, U-937, 4 h, read-out: TNF Release Assay Avg. IC50, LPS 100 ng/ml, 4 hrs, differentiated U937 cells
[5] = additional values are replicate IC50 experiments, read-out: MK-2 Avg. IC50
[6] = Homo sapiens, U-937, 4 h, LPS 100 ng/ml, 4 hrs, differentiated U937 cells, read-out: TNF Release Assay Avg. IC50

Chain of Recombinant MAPKAPK2 (MK-2) (P49137 whole entry, species assumed): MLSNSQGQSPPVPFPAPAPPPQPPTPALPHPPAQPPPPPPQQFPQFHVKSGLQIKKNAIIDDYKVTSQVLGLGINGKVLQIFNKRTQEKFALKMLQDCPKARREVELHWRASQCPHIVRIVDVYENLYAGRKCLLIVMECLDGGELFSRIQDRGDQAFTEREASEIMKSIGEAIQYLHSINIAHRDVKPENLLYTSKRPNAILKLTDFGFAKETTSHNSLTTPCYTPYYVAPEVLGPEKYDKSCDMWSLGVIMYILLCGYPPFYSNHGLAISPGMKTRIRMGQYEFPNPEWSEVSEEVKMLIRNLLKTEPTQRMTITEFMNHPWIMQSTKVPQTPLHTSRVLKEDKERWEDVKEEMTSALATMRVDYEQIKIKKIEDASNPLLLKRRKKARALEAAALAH

Which IC50 [1, 3] does the source give for `COCCOC(=O)C1c2[nH]c3ccc(OC)cc3c2C2CCN1C2` (centres unmarked) here?
Its IC50 is 4.72 µM and 4.96 µM.

What about the IC50 (TNFα release, U937 cells; read-out: TNF Release Assay Avg. IC50, LPS 100 ng/ml, 4 hrs, differentiated U937 cells, listed as 15) of the same compound?
The IC50 was 3.58 µM.

Which IC50 [1, 3] does the source give for `COc1ccc2[nH]c3c(c2c1)C1CCN(C1)C3C(=O)OCCO` (centres unmarked) here?
The IC50 was 5.64 µM.

What about the IC50 (TNFα release, U937 cells; [4]) of the same compound?
Its IC50 is greater than 100 µM.

With `COc1ccc2[nH]c3c(c2c1)C1CCN(C1)C3C(=O)OCCSC` (centres unmarked) as the compound, how does the IC50 [1, 3] read?
Its IC50 is 4.4 µM.

With `CSc1ccc2[nH]c3c(c2c1)C1CCN(C1)C3C(=O)O` (centres unmarked) [No. 4, 7-(methylthio)-3,4,5,10-tetrahydro-1H-2,5-methanoazepino[3,4-b]indole-1-carboxylic acid] as the compound, how does the IC50 (TNFα release, U937 cells; LPS 100 ng/ml, 4 hrs, differentiated U937 cells, read-out: TNF Release Assay Avg. IC50) read?
Its IC50 is greater than 100 µM.

With `COc1ccc2[nH]c3c(c2c1)C1CCN(C1)C3C(=O)OCC1CCCCC1` (centres unmarked) [No. 15, hydrochloride] as the compound, how does the IC50 [1, 5] read?
Its IC50 is 38.5 µM.

With `C[S+]([O-])c1ccc(-c2nc(-c3ccncc3)c(-c3ccc(F)cc3)[nH]2)cc1` (centres unmarked) [SB203580] as the compound, how does the mortality (endotoxin-induced shock) read?
Its mortality is “reduce mortality”.

What about the “development of collagen-induced arthritis” value [2] of the same compound?
The value was “inhibit the development”.

What about the “development of adjuvant arthritis” value (adjuvant arthritis) of the same compound?
Its value is “inhibit the development”.

What about the “inhibition of activation of MK-2” value (MK-2) of the same compound?
Its value is “inhibit activation”.

What does the source list for `COc1ccc2[nH]c3c(c2c1)C1CCN(C1)C3C(=O)OC(C)(C)C` (centres unmarked) [compound 41, tert-butyl 7-methoxy-3,4,5,10-tetrahydro-1H-2,5-methanoazepino[3,4-b]indole-1-carboxylate]?
IC50 [1, 5]: 112 µM; IC50 (TNFα release, U937 cells; [4]): > 100 µM

With `COc1ccc2[nH]c3c(c2c1)C1CCN(C1)C3C(=O)OC12CC3CC(CC(C3)C1)C2` (centres unmarked) [compound 42] as the compound, how does the IC50 (TNFα release, U937 cells; [4]) read?
Its IC50 is 42.4 µM.

Which IC50 (TNFα release, U937 cells; [6]) does the source give for `CNC(=O)C1c2[nH]c3ccc(OC)cc3c2C2CCN1C2` (centres unmarked) [compound 44, 7-methoxy-N-methyl-3,4,5,10-tetrahydro-1H-2,5-methanoazepino[3,4-b]indole-1-carboxamide] here?
The IC50 was greater than 100 µM.

With `COc1ccc2[nH]c3c(c2c1)C1CCN(C1)C3C(=O)NCc1ccccc1` (centres unmarked) [compound 45, N-benzyl-7-methoxy-3,4,5,10-tetrahydro-1H-2,5-methanoazepino[3,4-b]indole-1-carboxamide hydrochloride] as the compound, how does the IC50 [1, 3] read?
The IC50 was greater than 200 µM.

Which IC50 [1, 3] does the source give for `COc1ccc2[nH]c3c(c2c1)C1CCN(C1)C3C(=O)N(C)C` (centres unmarked) [compound 46, 7-methoxy-N,N-dimethyl-3,4,5,10-tetrahydro-1H-2,5-methanoazepino[3,4-b]indole-1-carboxamide] here?
The IC50 was greater than 200 µM.

What about the IC50 (TNFα release, U937 cells; [6]) of the same compound?
The IC50 was greater than 100 µM.

For `O=C(OCc1ccccc1)C1c2[nH]c3ccc(OCc4ccccc4)cc3c2C2CCN1C2` (centres unmarked) [compound 47, benzyl 7-(benzyloxy)-3,4,5,10-tetrahydro-1H-2,5-methanoazepino[3,4-b]indole-1-carboxylate trifluoroacetate], which IC50 [1, 5] is on record?
Its IC50 is greater than 200 µM.

What about the IC50 (TNFα release, U937 cells; [6]) of the same compound?
Its IC50 is 76.7 µM.

Which results are given for `COc1ccc2[nH]c3c(c2c1)C1CCN(C1)C3C(N)=O` (centres unmarked) [compound 48, 7-methoxy-3,4,5,10-tetrahydro-1H-2,5-methanoazepino[3,4-b]indole-1-carboxamide]?
IC50 [1, 3]: > 200 µM; IC50 (TNFα release, U937 cells; [6]): > 100 µM

Which IC50 (TNFα release, U937 cells; [6]) does the source give for `COCCNC(=O)C1c2[nH]c3ccc(OC)cc3c2C2CCN1C2` (centres unmarked) [compound 49, 7-methoxy-N-(2-methoxyethyl)-3,4,5,10-tetrahydro-1H-2,5-methanoazepino[3,4-b]indole-1-carboxamide] here?
Its IC50 is greater than 100 µM.

For `COc1ccc2[nH]c3c(c2c1)C1CCN(C1)C3c1ccc[nH]1` (centres unmarked) [compound 50, 7-methoxy-1-(1H-pyrrol-2-yl)-3,4,5,10-tetrahydro-1H-2,5-methanoazepino[3,4-b]indole trifluoroacetate], which IC50 [1, 5] is on record?
The IC50 was greater than 200 µM.

For `COc1ccc2[nH]c3c(c2c1)C1CCN(C1)C3C(=O)OC1CCCCC1` (centres unmarked) [hydrochloride], which IC50 (TNFα release, U937 cells; read-out: TNF Release Assay Avg. IC50, LPS 100 ng/ml, 4 hrs, differentiated U937 cells, listed as 38, hydrochloride) is on record?
The IC50 was 59.1 µM.

With `COc1ccc2[nH]c3c(c2c1)C1CCN(C1)C3C(=O)OCC(C)(C)C` (centres unmarked) [hydrochloride] as the compound, how does the IC50 [1, 3] read?
The IC50 was 20.6 µM.

For `CCCCCCOC(=O)C1c2[nH]c3ccc(OC)cc3c2C2CCN1C2` (centres unmarked) [trifluoroacetate], which IC50 [1, 3] is on record?
The IC50 was 29.7 µM.

For `COCCOC(=O)C1c2[nH]c3ccc(O)cc3c2C2CCN1C2` (centres unmarked) [trifluoroacetate], which IC50 [1, 3] is on record?
The IC50 was 6.88 µM.

With `COCCOC(=O)C1c2[nH]c3ccc(OC)cc3c2C2CCN1C2` (centres unmarked) [trifluoroacetate] as the compound, how does the IC50 [1, 3] read?
Its IC50 is 6.49 µM.

Which IC50 [1, 3] does the source give for `COc1ccc2[nH]c3c(c2c1)C1CCN(C1)C3C(=O)N(C)OC` (centres unmarked) [trifluoroacetate] here?
The IC50 was 91 µM and 98.2 µM.

With `COc1ccc2[nH]c3c(c2c1)C1CCN(C1)C3C(=O)OC1CCCCC1` (centres unmarked) [trifluoroacetate] as the compound, how does the IC50 [1, 3] read?
Its IC50 is 45.2 µM.

And the IC50 (TNFα release, U937 cells; read-out: TNF Release Assay Avg. IC50, LPS 100 ng/ml, 4 hrs, differentiated U937 cells, listed as 37, trifluoroacetate)?
The IC50 was 50.4 µM.
